Assay results: ChEMBL document CHEMBL4507278 (2021)

Columns and labels:
[1] = system: Tyrosine-protein kinase ABL1 (Homo sapiens), P00519 [T315I]; details: Compound concentration 1000.0 nM
[2] = biological target: Activin receptor type-1 (Homo sapiens) (UniProt Q04771); details: Compound concentration 1000.0 nM
[3] = biological target: Tyrosine-protein kinase Blk (Homo sapiens) (UniProt P51451); details: Compound concentration 1000.0 nM
[4] = biological target: Casein kinase I isoform gamma-2 (Homo sapiens) (UniProt P78368); details: Compound concentration 1000.0 nM
[5] = biological target: Mitogen-activated protein kinase 1 (Homo sapiens) (UniProt P28482); details: Compound concentration 1000.0 nM
[6] = biological target: Cyclin-G-associated kinase (Homo sapiens) (UniProt O14976); details: Compound concentration 1000.0 nM
[7] = biological target: Interleukin-1 receptor-associated kinase 1 (Homo sapiens) (UniProt P51617); details: Compound concentration 1000.0 nM
[8] = system: Mast/stem cell growth factor receptor Kit (Homo sapiens), P10721 [D816V]; details: Compound concentration 1000.0 nM
[9] = biological target: Serine/threonine-protein kinase LATS1 (Homo sapiens) (UniProt O95835); details: Compound concentration 1000.0 nM
[10] = biological target: Leucine-rich repeat serine/threonine-protein kinase 2 (Homo sapiens) (UniProt Q5S007); details: Compound concentration 1000.0 nM
[11] = biological target: MAP kinase-activated protein kinase 2 (Homo sapiens) (UniProt P49137); details: Compound concentration 1000.0 nM
[12] = biological target: Microtubule-associated serine/threonine-protein kinase 1 (Homo sapiens) (UniProt Q9Y2H9); details: Compound concentration 1000.0 nM
[13] = biological target: Tyrosine-protein kinase Mer (Homo sapiens) (UniProt Q12866); details: Compound concentration 1000.0 nM
[14] = biological target: Serine/threonine-protein kinase 4 (Homo sapiens) (UniProt Q13043); details: Compound concentration 1000.0 nM
[15] = biological target: Serine/threonine-protein kinase Nek5 (Homo sapiens) (UniProt Q6P3R8); details: Compound concentration 1000.0 nM
[16] = biological target: Serine/threonine-protein kinase PAK 1 (Homo sapiens) (UniProt Q13153); details: Compound concentration 1000.0 nM
[17] = biological target: Serine/threonine-protein kinase PAK 3 (Homo sapiens) (UniProt O75914); details: Compound concentration 1000.0 nM
[18] = system: Phosphatidylinositol 4,5-bisphosphate 3-kinase catalytic subunit alpha isoform (Homo sapiens), P42336 [H1047Y]; details: Compound concentration 1000.0 nM
[19] = biological target: Membrane-associated tyrosine- and threonine-specific cdc2-inhibitory kinase (Homo sapiens) (UniProt Q99640); details: Compound concentration 1000.0 nM
[20] = biological target: Proto-oncogene tyrosine-protein kinase receptor Ret (Homo sapiens) (UniProt P07949); details: Compound concentration 1000.0 nM
[21] = system: Proto-oncogene tyrosine-protein kinase receptor Ret (Homo sapiens), P07949 [V804M]; details: Compound concentration 1000.0 nM
[22] = biological target: Proto-oncogene tyrosine-protein kinase ROS (Homo sapiens) (UniProt P08922); details: Compound concentration 1000.0 nM
[23] = biological target: SRSF protein kinase 3 (Homo sapiens) (UniProt Q9UPE1); details: Compound concentration 1000.0 nM
[24] = biological target: Serine/threonine-protein kinase 33 (Homo sapiens) (UniProt Q9BYT3); details: Compound concentration 1000.0 nM
[25] = biological target: TGF-beta receptor type-1 (Homo sapiens) (UniProt P36897); details: Compound concentration 1000.0 nM
[26] = biological target: TRAF2 and NCK-interacting protein kinase (Homo sapiens) (UniProt Q9UKE5); details: Compound concentration 1000.0 nM
[27] = biological target: Mitogen-activated protein kinase kinase kinase 19 (Homo sapiens) (UniProt Q56UN5); details: Compound concentration 1000.0 nM
[28] = biological target: T1, 5-hydroxytryptamine receptor 3A (Homo sapiens) (UniProt P46098); details: Compound concentration 10.0 uM
T1 sequence (whole entry): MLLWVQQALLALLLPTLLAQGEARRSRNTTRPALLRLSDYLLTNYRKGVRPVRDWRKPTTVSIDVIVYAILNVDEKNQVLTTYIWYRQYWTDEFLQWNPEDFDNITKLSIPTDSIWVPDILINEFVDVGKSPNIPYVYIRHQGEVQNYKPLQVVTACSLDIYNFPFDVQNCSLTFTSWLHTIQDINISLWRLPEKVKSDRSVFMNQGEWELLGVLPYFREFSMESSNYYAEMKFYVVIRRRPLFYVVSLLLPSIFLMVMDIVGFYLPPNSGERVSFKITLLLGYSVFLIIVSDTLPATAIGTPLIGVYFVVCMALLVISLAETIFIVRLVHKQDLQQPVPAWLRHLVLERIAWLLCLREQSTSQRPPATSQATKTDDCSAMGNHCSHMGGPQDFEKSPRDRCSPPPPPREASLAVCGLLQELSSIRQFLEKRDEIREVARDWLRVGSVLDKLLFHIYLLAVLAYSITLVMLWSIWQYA

[29] = biological target: D(2) dopamine receptor (Homo sapiens) (UniProt P14416); details: Compound concentration 10.0 uM
[30] = biological target: Alpha-1A adrenergic receptor (Homo sapiens) (UniProt P35348); details: Compound concentration 10.0 uM
[31] = biological target: T2, Alpha-1D adrenergic receptor (Homo sapiens) (UniProt P25100); details: Compound concentration 10.0 uM
T2 sequence (whole entry): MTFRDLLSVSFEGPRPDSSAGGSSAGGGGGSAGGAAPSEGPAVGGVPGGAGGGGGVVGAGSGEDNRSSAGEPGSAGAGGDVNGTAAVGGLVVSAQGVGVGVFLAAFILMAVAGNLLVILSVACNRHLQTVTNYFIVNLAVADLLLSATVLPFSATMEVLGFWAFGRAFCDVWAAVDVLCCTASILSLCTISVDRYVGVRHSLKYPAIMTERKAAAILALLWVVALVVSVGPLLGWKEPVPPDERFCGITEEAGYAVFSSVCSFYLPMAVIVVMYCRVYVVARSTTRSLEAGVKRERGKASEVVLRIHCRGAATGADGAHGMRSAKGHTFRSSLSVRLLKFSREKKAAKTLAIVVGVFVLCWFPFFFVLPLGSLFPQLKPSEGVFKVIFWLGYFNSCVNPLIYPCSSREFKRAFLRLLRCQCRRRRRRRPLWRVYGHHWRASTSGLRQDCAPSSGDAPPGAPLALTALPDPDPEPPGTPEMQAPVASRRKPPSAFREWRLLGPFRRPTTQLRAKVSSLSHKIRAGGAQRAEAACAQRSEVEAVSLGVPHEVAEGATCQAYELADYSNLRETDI

Sequence of Microtubule-associated serine/threonine-protein kinase 1 (Homo sapiens) (Q9Y2H9 whole entry, looked up): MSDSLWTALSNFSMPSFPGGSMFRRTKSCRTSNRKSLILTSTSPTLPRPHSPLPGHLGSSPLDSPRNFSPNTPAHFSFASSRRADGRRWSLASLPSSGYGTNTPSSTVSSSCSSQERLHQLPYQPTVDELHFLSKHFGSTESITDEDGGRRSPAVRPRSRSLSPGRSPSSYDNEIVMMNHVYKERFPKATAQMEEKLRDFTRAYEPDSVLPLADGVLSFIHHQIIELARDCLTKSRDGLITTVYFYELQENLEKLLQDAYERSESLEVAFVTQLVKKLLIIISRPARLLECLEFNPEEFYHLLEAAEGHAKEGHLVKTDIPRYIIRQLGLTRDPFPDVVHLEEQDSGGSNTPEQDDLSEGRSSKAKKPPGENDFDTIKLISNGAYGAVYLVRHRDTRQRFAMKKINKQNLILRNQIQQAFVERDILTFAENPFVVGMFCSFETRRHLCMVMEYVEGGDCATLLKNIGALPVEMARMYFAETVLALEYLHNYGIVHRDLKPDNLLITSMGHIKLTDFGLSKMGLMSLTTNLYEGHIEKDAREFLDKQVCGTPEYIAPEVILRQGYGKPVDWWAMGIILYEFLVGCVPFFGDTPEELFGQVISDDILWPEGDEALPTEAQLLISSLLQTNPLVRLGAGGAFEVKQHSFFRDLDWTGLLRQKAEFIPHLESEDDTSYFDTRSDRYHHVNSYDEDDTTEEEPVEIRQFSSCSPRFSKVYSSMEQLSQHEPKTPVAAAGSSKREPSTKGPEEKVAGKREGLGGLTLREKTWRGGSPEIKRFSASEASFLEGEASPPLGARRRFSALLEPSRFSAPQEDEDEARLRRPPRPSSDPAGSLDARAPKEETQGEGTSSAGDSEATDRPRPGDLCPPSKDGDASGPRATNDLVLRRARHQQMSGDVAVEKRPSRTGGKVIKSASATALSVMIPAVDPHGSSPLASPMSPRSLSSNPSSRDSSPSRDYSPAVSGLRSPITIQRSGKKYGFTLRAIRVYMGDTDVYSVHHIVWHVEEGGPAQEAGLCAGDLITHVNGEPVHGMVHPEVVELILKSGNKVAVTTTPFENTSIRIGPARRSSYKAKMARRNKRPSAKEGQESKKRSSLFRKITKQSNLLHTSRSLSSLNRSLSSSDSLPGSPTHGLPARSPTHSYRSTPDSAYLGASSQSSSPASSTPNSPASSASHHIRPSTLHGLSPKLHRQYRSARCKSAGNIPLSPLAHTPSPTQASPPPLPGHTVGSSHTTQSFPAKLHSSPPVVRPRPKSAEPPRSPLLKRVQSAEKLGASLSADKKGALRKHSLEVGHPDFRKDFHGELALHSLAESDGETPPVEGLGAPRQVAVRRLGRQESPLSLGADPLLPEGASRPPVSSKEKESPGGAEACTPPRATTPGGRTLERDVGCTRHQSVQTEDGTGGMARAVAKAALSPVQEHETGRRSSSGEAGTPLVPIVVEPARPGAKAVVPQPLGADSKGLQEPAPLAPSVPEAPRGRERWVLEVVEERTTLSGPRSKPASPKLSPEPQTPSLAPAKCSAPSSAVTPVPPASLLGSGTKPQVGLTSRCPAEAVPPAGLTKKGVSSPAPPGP
Sequence of MAP kinase-activated protein kinase 2 (Homo sapiens) (P49137 whole entry, looked up): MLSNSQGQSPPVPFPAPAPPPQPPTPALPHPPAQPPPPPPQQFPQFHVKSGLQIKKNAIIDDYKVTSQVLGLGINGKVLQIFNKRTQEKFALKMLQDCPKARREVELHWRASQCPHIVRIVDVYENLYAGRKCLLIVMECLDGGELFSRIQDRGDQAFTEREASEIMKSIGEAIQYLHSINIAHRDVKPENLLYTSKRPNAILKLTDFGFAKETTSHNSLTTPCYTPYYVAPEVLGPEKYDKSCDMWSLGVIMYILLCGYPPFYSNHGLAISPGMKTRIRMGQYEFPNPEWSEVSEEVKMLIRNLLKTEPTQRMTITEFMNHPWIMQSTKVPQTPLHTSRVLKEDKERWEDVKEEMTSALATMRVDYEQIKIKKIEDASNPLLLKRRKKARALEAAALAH
Sequence of Phosphatidylinositol 4,5-bisphosphate 3-kinase catalytic subunit alpha isoform (Homo sapiens), P42336 [H1047Y] (P42336 whole entry H1047Y, canonical isoform): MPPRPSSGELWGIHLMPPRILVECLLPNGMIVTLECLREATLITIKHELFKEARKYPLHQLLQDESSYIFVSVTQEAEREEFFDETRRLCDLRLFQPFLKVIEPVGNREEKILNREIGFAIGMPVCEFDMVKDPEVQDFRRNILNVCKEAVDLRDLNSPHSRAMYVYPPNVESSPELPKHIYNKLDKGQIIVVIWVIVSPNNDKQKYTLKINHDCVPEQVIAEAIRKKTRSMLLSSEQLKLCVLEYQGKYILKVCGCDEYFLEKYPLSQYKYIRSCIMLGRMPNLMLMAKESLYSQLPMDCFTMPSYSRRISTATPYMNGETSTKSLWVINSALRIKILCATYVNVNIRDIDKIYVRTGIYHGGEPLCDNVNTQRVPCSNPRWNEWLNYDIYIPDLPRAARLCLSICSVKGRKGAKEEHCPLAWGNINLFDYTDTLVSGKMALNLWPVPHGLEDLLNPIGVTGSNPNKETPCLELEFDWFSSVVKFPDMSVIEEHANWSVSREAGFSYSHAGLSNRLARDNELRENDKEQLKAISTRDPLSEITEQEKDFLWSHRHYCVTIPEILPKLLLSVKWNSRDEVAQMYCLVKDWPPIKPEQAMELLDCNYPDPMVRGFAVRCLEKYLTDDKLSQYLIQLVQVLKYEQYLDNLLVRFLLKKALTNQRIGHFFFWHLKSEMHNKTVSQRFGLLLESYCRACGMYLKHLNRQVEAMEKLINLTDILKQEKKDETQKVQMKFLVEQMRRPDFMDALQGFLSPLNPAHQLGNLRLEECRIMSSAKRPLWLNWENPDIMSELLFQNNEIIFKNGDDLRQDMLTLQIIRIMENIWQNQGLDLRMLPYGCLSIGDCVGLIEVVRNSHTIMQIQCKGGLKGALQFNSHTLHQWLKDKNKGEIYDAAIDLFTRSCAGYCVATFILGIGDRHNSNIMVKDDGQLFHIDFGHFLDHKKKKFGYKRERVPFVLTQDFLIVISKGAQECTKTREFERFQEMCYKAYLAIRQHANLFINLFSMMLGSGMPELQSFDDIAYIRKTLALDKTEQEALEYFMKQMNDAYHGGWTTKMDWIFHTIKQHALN
Sequence of Proto-oncogene tyrosine-protein kinase receptor Ret (Homo sapiens) (P07949 whole entry): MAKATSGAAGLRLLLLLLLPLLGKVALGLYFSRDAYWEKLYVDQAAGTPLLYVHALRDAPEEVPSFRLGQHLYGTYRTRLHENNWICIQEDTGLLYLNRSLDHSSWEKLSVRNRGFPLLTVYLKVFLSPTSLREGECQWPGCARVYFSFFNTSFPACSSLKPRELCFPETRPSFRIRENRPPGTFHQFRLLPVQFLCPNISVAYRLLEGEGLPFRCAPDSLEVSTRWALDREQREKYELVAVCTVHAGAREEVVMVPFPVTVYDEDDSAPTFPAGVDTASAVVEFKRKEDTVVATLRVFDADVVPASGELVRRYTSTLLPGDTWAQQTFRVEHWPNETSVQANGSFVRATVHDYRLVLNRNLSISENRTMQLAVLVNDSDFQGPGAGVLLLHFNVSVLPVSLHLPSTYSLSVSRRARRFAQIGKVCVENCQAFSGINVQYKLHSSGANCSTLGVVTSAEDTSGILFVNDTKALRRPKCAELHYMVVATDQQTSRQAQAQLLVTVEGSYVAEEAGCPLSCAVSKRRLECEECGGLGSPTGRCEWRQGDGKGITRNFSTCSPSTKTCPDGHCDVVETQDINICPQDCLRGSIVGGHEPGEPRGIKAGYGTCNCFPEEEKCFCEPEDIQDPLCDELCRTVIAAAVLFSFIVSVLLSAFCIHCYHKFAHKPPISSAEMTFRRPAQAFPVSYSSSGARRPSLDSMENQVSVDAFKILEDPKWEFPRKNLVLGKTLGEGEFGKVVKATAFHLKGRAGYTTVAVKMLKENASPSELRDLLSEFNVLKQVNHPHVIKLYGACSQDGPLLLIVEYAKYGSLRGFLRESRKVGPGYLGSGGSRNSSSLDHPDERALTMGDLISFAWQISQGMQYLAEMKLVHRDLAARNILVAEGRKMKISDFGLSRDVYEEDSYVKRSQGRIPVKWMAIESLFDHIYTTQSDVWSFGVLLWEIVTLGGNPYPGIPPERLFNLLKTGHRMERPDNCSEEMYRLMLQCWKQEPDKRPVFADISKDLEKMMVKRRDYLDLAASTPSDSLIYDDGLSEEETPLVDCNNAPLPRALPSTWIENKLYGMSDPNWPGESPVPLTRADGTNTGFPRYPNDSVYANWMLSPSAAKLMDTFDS
Sequence of Interleukin-1 receptor-associated kinase 1 (Homo sapiens) (P51617 whole entry, looked up): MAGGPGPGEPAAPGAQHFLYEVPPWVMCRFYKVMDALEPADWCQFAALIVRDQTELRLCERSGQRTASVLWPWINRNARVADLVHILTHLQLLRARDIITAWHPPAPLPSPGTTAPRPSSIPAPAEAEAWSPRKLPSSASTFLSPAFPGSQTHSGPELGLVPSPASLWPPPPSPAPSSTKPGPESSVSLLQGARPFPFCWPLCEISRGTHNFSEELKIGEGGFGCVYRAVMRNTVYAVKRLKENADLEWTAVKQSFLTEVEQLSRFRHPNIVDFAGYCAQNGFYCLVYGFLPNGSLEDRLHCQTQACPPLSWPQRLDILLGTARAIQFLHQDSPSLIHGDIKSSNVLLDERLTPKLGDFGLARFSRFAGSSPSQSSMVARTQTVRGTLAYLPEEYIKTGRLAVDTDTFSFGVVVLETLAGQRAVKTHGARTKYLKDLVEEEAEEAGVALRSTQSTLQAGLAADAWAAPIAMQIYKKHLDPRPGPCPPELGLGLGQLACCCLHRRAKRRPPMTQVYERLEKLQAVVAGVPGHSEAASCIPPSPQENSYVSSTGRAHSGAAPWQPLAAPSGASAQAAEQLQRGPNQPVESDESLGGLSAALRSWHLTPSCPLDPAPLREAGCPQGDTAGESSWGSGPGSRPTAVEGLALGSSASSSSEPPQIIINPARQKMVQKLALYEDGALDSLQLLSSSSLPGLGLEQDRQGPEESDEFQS
Sequence of Proto-oncogene tyrosine-protein kinase receptor Ret (Homo sapiens), P07949 [V804M] (P07949 whole entry V804M): as the sequence (P07949 whole entry) above, with V804M counted along it

| SMILES | residual activity [1] [%] | residual activity [2] [%] | residual activity [3] [%] | residual activity [4] [%] | residual activity [5] [%] | residual activity [6] [%] | residual activity [7] [%] | residual activity [8] [%] | residual activity [9] [%] | residual activity [10] [%] | residual activity [11] [%] | residual activity [12] [%] | residual activity [13] [%] | residual activity [14] [%] | residual activity [15] [%] | residual activity [16] [%] | residual activity [17] [%] | residual activity [18] [%] | residual activity [19] [%] | residual activity [20] [%] | other results |
| --- | --- | --- | --- | --- | --- | --- | --- | --- | --- | --- | --- | --- | --- | --- | --- | --- | --- | --- | --- | --- | --- |
| CS(=O)(=O)c1cc(C2(NC(=O)c3cncc4c3cnn4-c3ccc(F)cc3)CC2)ccn1 [BI 639667] | 73 | 100 | 100 | 100 | 94 | 85 | 87 | 100 | 98 | 43 | 100 | 100 | 100 | 77 | 100 | 100 | 100 | 100 | 85 | 100 | residual activity [21]: 97%; residual activity [22]: 100%; residual activity [23]: 100%; residual activity [24]: 90%; residual activity [25]: 100%; residual activity [26]: 95%; residual activity [27]: 91%; inhibition [28]: 12.9%; inhibition [29]: 6.62%; inhibition [30]: -7.71%; inhibition [31]: -7.67% |
| CS(=O)(=O)NCC[C@H](NC(=O)c1cncc2c1cnn2-c1ccc(F)cc1)c1ccnc(S(C)(=O)=O)c1 [BI 9307] | 100 | 100 | 100 | 89 | 100 | 100 | 100 | 94 | 100 | 86 | 100 | 100 | 100 | 100 | 100 | 88 | 100 | 100 | 84 | 91 | residual activity [21]: 96%; residual activity [22]: 94%; residual activity [23]: 100%; residual activity [24]: 87%; residual activity [25]: 100%; residual activity [26]: 100%; residual activity [27]: 98%; inhibition [28]: 10.2%; inhibition [29]: -5.26%; inhibition [30]: -3.82%; inhibition [31]: -9.49% |
